In patent publication US20230079819A1, “COMPOUNDS AND USES THEREOF” (Foghorn Therapeutics Inc., priority 2019, published 2023):
Values joined by “and” are separate entries in the source; they are usually repeats but may differ in a detail not shown here. Equal entries are not always repeated. Where two headings read alike, the source gives them in different places.

Assays:
BRM = molecular target: T1, BRM (Homo sapiens, UniProt P51531); assay: ATPase catalytic activity of BRM, ADP-Glo in vitro biochemical assay; details: ATPase catalytic activity, 30 nM BRM, 400 μM ATP
T1 construct: made in house; host or cells: High Five insect cells

BRG-1 = molecular target: T2, BRG-1 (Homo sapiens, UniProt P51532); assay: ATPase catalytic activity of BRG-1, ADP-Glo in vitro biochemical assay; details: ATPase catalytic activity, 30 nM BRG-1, 400 μM ATP
T2 construct: made in house; host or cells: High Five insect cells
T2 sequence (P51532 whole entry): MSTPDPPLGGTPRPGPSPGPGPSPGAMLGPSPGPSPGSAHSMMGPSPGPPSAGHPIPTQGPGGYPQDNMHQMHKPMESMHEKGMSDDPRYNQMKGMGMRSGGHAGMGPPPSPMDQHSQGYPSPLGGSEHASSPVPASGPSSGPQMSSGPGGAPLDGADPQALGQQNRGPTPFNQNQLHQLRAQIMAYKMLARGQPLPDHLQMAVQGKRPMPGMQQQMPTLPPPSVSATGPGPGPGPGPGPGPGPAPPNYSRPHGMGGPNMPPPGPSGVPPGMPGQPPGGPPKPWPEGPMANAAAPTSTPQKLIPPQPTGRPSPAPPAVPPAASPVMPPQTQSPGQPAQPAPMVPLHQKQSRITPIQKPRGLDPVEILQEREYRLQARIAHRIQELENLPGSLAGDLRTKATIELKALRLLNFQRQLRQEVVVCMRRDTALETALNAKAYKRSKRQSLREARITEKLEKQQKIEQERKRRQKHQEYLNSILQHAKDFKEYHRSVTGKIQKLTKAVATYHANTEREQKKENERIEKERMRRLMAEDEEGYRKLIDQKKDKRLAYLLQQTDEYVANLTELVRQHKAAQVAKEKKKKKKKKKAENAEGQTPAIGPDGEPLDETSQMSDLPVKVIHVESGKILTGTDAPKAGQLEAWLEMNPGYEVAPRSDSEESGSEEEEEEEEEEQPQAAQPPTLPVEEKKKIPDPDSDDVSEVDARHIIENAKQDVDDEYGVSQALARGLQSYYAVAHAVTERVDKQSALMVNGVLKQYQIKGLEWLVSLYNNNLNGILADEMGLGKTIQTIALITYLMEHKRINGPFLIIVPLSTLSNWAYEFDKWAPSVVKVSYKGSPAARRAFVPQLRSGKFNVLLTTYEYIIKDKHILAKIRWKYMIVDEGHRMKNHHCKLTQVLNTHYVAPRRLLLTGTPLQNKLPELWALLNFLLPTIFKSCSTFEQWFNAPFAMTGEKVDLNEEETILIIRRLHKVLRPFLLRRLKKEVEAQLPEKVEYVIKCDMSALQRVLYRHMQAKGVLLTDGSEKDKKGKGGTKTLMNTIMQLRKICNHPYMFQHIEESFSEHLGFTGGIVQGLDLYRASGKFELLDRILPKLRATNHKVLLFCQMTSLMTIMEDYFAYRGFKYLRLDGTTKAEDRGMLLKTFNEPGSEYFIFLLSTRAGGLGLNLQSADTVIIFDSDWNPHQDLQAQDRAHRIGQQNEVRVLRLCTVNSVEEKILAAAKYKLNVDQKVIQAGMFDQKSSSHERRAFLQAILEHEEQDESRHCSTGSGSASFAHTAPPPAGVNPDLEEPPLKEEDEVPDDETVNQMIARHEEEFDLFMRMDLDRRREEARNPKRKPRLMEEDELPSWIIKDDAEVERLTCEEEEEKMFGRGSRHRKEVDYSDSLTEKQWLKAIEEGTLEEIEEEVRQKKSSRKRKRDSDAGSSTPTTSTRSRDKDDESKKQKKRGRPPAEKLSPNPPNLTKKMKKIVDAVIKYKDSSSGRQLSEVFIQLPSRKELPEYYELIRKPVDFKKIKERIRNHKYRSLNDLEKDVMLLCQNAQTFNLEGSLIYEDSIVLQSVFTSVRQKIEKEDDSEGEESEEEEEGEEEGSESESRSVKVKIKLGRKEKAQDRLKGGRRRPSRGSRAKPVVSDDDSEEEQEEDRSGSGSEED

T1 sequence (P51531 whole entry): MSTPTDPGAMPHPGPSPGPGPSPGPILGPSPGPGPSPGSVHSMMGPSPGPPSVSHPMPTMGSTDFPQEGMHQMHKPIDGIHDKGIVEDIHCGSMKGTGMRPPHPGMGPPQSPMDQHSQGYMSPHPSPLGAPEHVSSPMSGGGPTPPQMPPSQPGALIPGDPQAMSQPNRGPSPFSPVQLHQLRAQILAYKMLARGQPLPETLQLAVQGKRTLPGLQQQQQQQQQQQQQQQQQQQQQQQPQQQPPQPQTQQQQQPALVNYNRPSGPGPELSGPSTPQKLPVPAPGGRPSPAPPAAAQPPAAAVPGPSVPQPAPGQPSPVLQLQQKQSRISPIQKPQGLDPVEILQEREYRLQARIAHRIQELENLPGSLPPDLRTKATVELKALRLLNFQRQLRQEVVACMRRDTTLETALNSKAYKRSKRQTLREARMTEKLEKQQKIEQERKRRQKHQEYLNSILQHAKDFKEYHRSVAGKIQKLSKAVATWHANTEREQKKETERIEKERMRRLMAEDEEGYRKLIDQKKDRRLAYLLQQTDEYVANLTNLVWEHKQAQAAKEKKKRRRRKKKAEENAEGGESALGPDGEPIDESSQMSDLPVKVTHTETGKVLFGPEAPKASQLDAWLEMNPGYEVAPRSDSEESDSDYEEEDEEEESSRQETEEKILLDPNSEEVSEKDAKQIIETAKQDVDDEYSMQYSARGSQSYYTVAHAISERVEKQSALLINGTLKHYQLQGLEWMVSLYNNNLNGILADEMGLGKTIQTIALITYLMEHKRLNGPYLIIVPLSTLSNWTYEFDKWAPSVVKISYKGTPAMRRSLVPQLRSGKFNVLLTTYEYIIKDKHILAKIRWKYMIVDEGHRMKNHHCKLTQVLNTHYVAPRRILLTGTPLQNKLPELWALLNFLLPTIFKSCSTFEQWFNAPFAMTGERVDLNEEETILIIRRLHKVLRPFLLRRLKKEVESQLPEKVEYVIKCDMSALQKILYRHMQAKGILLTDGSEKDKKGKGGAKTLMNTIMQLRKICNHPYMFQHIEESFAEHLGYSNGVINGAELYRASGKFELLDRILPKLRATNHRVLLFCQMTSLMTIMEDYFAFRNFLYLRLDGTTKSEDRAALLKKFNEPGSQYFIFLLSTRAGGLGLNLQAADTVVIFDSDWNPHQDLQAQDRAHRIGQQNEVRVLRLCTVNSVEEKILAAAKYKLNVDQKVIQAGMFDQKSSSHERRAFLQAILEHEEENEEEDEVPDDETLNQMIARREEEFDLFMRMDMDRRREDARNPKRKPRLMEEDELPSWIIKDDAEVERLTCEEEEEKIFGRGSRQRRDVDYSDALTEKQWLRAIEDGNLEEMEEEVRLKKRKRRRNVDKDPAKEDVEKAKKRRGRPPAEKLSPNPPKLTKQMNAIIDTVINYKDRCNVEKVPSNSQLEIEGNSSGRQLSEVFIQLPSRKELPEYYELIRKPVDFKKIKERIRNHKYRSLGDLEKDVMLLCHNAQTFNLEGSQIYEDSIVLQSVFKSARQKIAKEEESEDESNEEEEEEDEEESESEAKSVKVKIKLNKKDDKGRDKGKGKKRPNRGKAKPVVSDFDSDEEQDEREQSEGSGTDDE

IC50 (BRM; read-out: BRM IP50 (μM)*) | IC50 (BRG-1; read-out: BRG1 IP50 (μM)*) | IC50 (BRM; read-out: BRM IP50) | IC50 (BRG-1; read-out: BRG1 IP50) | SMILES
< 0.01 µM | < 0.01 µM | – | – | C[C@H]1CN(c2cccc(-c3csc(NC(=O)CNC(=O)c4ccn(S(C)(=O)=O)c4)n3)c2)C[C@H](C)O1 [Compound 86, N-(2-((4-(3-((2S, 6S)-2,6-dimethylmorpholino)phenyl)thiazol-2-yl)amino)-2-oxoethyl)-1-(methylsulfonyl)-1H-pyrrole-3-carboxamide]
> 0.1 µM | > 0.1 µM | – | – | CC(C)(O)c1cccc(-c2csc(NC(=O)CNC(=O)c3ccn(S(C)(=O)=O)c3)n2)c1 [Compound 139, N-(2-((4-(3-(2-hydroxypropan-2-yl)phenyl)thiazol-2-yl)amino)-2-oxoethyl)-1-(methylsulfonyl)-1H-pyrrole-3-carboxamide]
– | – | > 0.1 µM | > 0.1 µM | CC(C)(C)n1ccc(C(=O)NCC(=O)Nc2nc(-c3cccc(N4CC(F)(F)C4)n3)cs2)c1 [Compound 646]
> 0.01 µM | > 0.1 µM | – | – | CC(OC1CCOCC1)c1cccc(-c2csc(NC(=O)CNC(=O)c3ccn(C(C)(C)C)c3)n2)c1 (stereo not shown) [Compound 126, 1-(tert-butyl)-N-(2-oxo-2-((4-(3-(1-((tetrahydro-2H-pyran-4-yl)oxy)ethyl)phenyl)thiazol-2-yl)amino)ethyl)-1H-pyrrole-3-carboxamide]
– | – | < 0.01 µM | < 0.01 µM | COC[C@H](NC(=O)c1ccn(C(C)(C)C)c1)C(=O)Nc1nc(-c2ccc3ccn(C4COC4)c(=O)c3c2)cs1 [Compound 603]
– | – | < 0.01 µM | < 0.01 µM | CN1CCOc2c(F)cc(-c3csc(NC(=O)CNC(=O)c4ccn(S(C)(=O)=O)c4)n3)cc21 [Compound 546]
< 0.01 µM | < 0.01 µM | – | – | CS(=O)(=O)n1ccc(C(=O)NCC(=O)Nc2nc(-c3cccc(N4CC[C@@H](O)C4)c3)cs2)c1 [Compound 178]
– | – | > 0.01 µM | > 0.01 µM | CS(=O)(=O)n1ccc(C(=O)NCC(=O)Nc2nc(-c3cccc(N4CC[C@@H](C(F)F)C4)c3)cs2)c1 [Compound 586]
– | – | < 0.01 µM | < 0.01 µM | COC[C@H](NC(=O)c1ccn(S(C)(=O)=O)c1)C(=O)Nc1nc(-c2cccc(-c3ccnc(Cl)c3)c2)cs1 [Compound 438]
< 0.01 µM and > 0.01 µM | < 0.01 µM | – | – | CS(=O)(=O)n1ccc(C(=O)N[C@@H](CCO)C(=O)Nc2nc(-c3cccc(-c4ccncc4)c3)cs2)c1 [Compound 71, (S)—N-(4-hydroxy-1-oxo-1-((4-(3-(pyridin-4-yl)phenyl)thiazol-2-yl)amino)butan-2-yl)-1-(methylsulfonyl)-1H-pyrrole-3-carboxamide]
> 0.01 µM | > 0.01 µM | – | – | Cn1ccc(-c2cccc(-c3csc(NC(=O)CNC(=O)c4ccn(C5(C)COC5)c4)n3)n2)n1 [Compound 327, 1-(3-methyloxetan-3-yl)-N-[2-[[4-[6-(1-methylpyrazol-3-yl)-2-pyridyl]thiazol-2-yl]amino]-2-oxo-ethyl]pyrrole-3-carboxamide]
> 0.01 µM | > 0.01 µM | – | – | CS(=O)(=O)n1ccc(C(=O)NCC(=O)Nc2nc(-c3cccc(OC4CC4)c3)cs2)c1 [Compound 265]
– | – | > 0.1 µM | > 0.1 µM | CC(C)(C)n1ccc(C(=O)NCC(=O)Nc2nc(-c3cccc(N4C[C@@H](F)[C@H](F)C4)n3)cs2)c1 [Compound 677]
– | – | < 0.01 µM | > 0.01 µM | Cn1ccc(-c2cccc(-c3csc(NC(=O)CNC(=O)c4ccn(C(C)(C)C#N)c4)n3)c2)n1 [Compound 562]
– | – | > 0.01 µM | > 0.1 µM | C[C@]1(n2ccc(C(=O)NCC(=O)Nc3nc(-c4cccc(N5CCC5)c4)cs3)c2)CCOC1 [Compound 506]
< 0.01 µM | < 0.01 µM | – | – | CS(=O)(=O)n1cnc(C(=O)NCC(=O)Nc2nc(-c3cccc(-c4ccncc4)c3)cs2)c1 [Compound 46, 1-(methylsulfonyl)-N-(2-oxo-2-((4-(3-(pyridin-4-yl)phenyl)thiazol-2-yl)amino)ethyl)-1H-imidazole-4-carboxamide]
– | – | > 0.01 µM | > 0.01 µM | CC1(n2ccc(C(=O)NCC(=O)Nc3nc(-c4ccc(F)c(N5CCC5)c4)cs3)c2)COC1 [Compound 510]
– | – | < 0.01 µM | > 0.01 µM | C[C@@H]1CN(c2cccc(-c3csc(NC(=O)[C@H](C)NC(=O)c4ccn(S(C)(=O)=O)c4)n3)n2)C[C@H](C)O1 [Compound 767]
– | – | > 0.01 µM | > 0.01 µM | COCC1CN(c2cccc(-c3csc(NC(=O)CNC(=O)c4ccn(C(C)(C)C)c4)n3)n2)CCO1 (stereo not shown) [Compound 684]
– | – | < 0.01 µM | < 0.01 µM | COC[C@H](NC(=O)c1ccn(S(C)(=O)=O)c1)C(=O)Nc1nc(-c2ccc3ccn(C)c(=O)c3c2)cs1 [Compound 430]
> 0.1 µM | > 0.1 µM | – | – | CO[C@@H]1CCCN(c2cccc(-c3csc(NC(=O)CNC(=O)c4ccn(C5(C)COC5)c4)n3)n2)C1 [Compound 330]
– | – | > 0.1 µM | > 0.1 µM | CO[C@H]1C[C@H](c2cccc(-c3csc(NC(=O)CNC(=O)c4ccn(C(C)(C)C)c4)n3)n2)C1 [Compound 514]

IC50 (BRM; read-out: BRM IP50 (μM)*) | IC50 (BRG-1; read-out: BRG1 IP50 (μM)*) | IC50 (BRM; read-out: BRM IP50) | IC50 (BRG-1; read-out: BRG1 IP50) | SMILES
> 0.01 µM | > 0.01 µM | – | – | CN1Cc2ccc(-c3csc(NC(=O)CNC(=O)c4ccn(S(C)(=O)=O)c4)n3)cc2CC1=O [Compound 109, N-(2-((4-(2-methyl-3-oxo-1,2,3,4-tetrahydroisoquinolin-6-yl)thiazol-2-yl)amino)-2-oxoethyl)-1-(methylsulfonyl)-1H-pyrrole-3-carboxamide]
> 0.1 µM | > 0.1 µM | – | – | CC(C)(C)n1ccc(C(=O)NCC(=O)Nc2nc(-c3ccc4cncnc4c3)cs2)c1 [Compound 142]
– | – | > 0.1 µM | > 0.1 µM | CS(=O)(=O)n1ccc(C(=O)NCC(=O)Nc2nc(-c3cccc(N4CCN(C5COC5)CC4)c3)cs2)c1 [Compound 451]
> 0.01 µM | > 0.1 µM | – | – | COC[C@H](NC(=O)c1ccn(S(C)(=O)=O)c1)C(=O)Nc1nc(-c2cccc(C3CC(C)(C)OC(C)(C)C3)c2)cs1 [Compound 353]
> 0.01 µM | > 0.01 µM | – | – | CS(=O)(=O)n1ccc(C(=O)NCC(=O)Nc2nc(-c3cccc(OCC4COC4)c3)cs2)c1 [Compound 110, 1-(methylsulfonyl)-N-(2-((4-(3-(oxetan-3-ylmethoxy)phenyl)thiazol-2-yl)amino)-2-oxoethyl)-1H-pyrrole-3-carboxamide]
– | – | > 0.01 µM | > 0.01 µM | CC(C)(C)n1ccc(C(=O)NCC(=O)Nc2nc(-c3cccc(N4C[C@H]5COC[C@H]5C4)n3)cs2)c1 [Compound 674]
– | – | > 0.01 µM | > 0.01 µM | COC[C@H](NC(=O)c1ccn(S(C)(=O)=O)c1)C(=O)Nc1nc(-c2cccc([C@]34CCOC[C@H]3C4)n2)cs1 [Compound 755]
– | – | > 0.01 µM | > 0.01 µM | COC[C@H](NC(=O)c1ccn(S(C)(=O)=O)c1)C(=O)Nc1nc(-c2ccc3c(c2)CCN3C)cs1 [Compound 735]
< 0.01 µM | > 0.01 µM | – | – | CS(=O)(=O)n1ccc(C(=O)NCC(=O)Nc2nc(-c3cccc(N4CC[C@H](O)[C@H](F)C4)c3)cs2)c1 [Compound 191]
> 0.1 µM | > 0.1 µM | – | – | C[C@@H]1CN(c2cccc(-c3csc(NC(=O)CNC(=O)c4ccn(C5COC5)c4)n3)c2)C[C@H](C)O1 [Compound 229]
> 0.01 µM | > 0.01 µM | – | – | CS(=O)(=O)n1ccc(C(=O)NCC(=O)Nc2nc(-c3cccc(N4CCCC5(COC5)C4)c3)cs2)c1 [Compound 204]
> 0.01 µM | > 0.01 µM | – | – | CC(C)n1ccc(C(=O)NCC(=O)Nc2nc(-c3cccc(-c4ccn(C)n4)c3)cs2)c1 [Compound 2, 1-isopropyl-N-(2-((4-(3-(1-methyl-1H-pyrazol-3-yl)phenyl)thiazol-2-yl)amino)-2-oxoethyl)-1H-pyrrole-3-carboxamide]
– | – | > 0.01 µM | > 0.01 µM | COC[C@H](NC(=O)c1ccn(S(C)(=O)=O)c1)C(=O)Nc1nc(-c2cccc(OC(F)(F)F)c2)cs1 [Compound 459]
– | – | > 0.01 µM | > 0.1 µM | CC(C)(C)n1ccc(C(=O)NCC(=O)Nc2nc(-c3cccc(N4C[C@@H](F)[C@@H](F)C4)n3)cs2)c1 [Compound 664]
– | – | > 0.01 µM | > 0.01 µM | CC(C)(C)n1ccc(C(=O)NCC(=O)Nc2nc(-c3cccc(N4CCCC5(CCOCC5)C4)n3)cs2)c1 [Compound 645]
> 0.01 µM | > 0.01 µM | – | – | C[C@H]1CCCN(c2cccc(-c3csc(NC(=O)CNC(=O)c4ccn(S(C)(=O)=O)c4)n3)c2)C1 [Compound 232]
– | – | > 0.01 µM | > 0.01 µM | COC[C@H](NC(=O)c1ccn(S(C)(=O)=O)c1)C(=O)Nc1nc(-c2cc(F)cc(OC(F)(F)F)c2)cs1 [Compound 593]
> 0.01 µM | > 0.01 µM | – | – | CC[C@@H]1CN(c2cccc(-c3csc(NC(=O)CNC(=O)c4ccn(S(C)(=O)=O)c4)n3)c2)CCO1 [Compound 237]
> 0.1 µM | > 0.1 µM | – | – | CS(=O)(=O)n1ccc(C(=O)NCC(=O)Nc2nc(-c3cnn(-c4ccncc4)c3)cs2)c1 [Compound 6, 1-(methylsulfonyl)-N-(2-oxo-2-((4-(1-(pyridin-4-yl)-1H-pyrazol-4-yl)thiazol-2-yl)amino)ethyl)-1H-pyrrole-3-carboxamide]
> 0.01 µM | > 0.01 µM | – | – | NCCS(=O)(=O)n1ccc(C(=O)NCC(=O)Nc2nc(-c3cccc(-c4ccncc4)c3)cs2)c1 [Compound 40, 1-((2-aminoethyl)sulfonyl)-N-(2-oxo-2-((4-(3-(pyridin-4-yl)phenyl)thiazol-2-yl)amino)ethyl)-1H-pyrrole-3-carboxamide]
– | – | > 0.01 µM | > 0.01 µM | CN1CCCc2ccc(-c3csc(NC(=O)CNC(=O)c4ccn(S(C)(=O)=O)c4)n3)nc21 [Compound 394]
> 0.01 µM | > 0.01 µM | – | – | CC(C)(C)n1ccc(C(=O)NCC(=O)Nc2nc(-c3cccc(CO[C@H]4CCOC4)c3)cs2)c1 [Compound 135, (S)-1-(tert-butyl)-N-(2-oxo-2-((4-(3-(((tetrahydrofuran-3-yl)oxy)methyl)phenyl)thiazol-2-yl)amino)ethyl)-1H-pyrrole-3-carboxamide]
